Assays:
[1] = Rat pharmacokinetic experiment; format: in vivo; details: po, male SD rats, gavage (p.o.), 10 mg/kg, plasma
Source text: TEST EXAMPLE 3 PHARMACOKINETIC EXPERIMENT OF COMPOUNDS
Pharmacokinetic test of compounds T-32/T-105/T-253/T-272/T-273/T-277 of the present invention.
Experimental Protocol of Rat Pharmacokinetics
• (1) Required animals: healthy adult SD rats, male, 3 rats, 6-8 weeks old; weighing 200-300 g. • (2) Required equipments: analytical balance, animal weight scale, magnetic stirrer, refrigerated centrifuge, single-channel manual pipettor, etc. • (3) Required reagents: EDTA-Na2 anticoagulant, etc. 11.2 g of EDTA-Na2 was weighed and placed in a reagent flask, 100 mL of normal saline was added, and the flask was shook to completely dissolve it. After the preparation was completed, it was divided into 1.5 mL centrifuge tubes with 20 uL each for whole blood sample collection. • (3) About 10 mg of the sample to be tested was accurately weighed, 5% DMSO after conversion was added to dissolve, then 30% PEG400 and 65% (10% Hp-β-CD in PBS) were added for sonication, and vortex-mixed evenly to obtain a solution with a concentration of 1 mg/mL which is freshly prepared before use. • (4) 0.1 mL of sample was taken into a 1.5 mL centrifuge tube and stored at −80° C. for concentration analysis of drug administration solution. • (5) Animals were kept in rat cages, and fasted (not less than 10 h) from the day before the test(but water was allowed). The animals were separately weighed and marked at the tail on the day of the test. Blank blood was collected before administration. The blood was collected from tail vein. • (6) Route of administration: gavage (p.o.); dosage: 10 mg/kg; administration volume: 10 mL/kg. • (7) Operation process: Use the left hand with anti-bite gloves to catch the rat, make it stand upright, stretch the 16th gastric lavage needle from the throat of the mouth, insert the needle when feeling out no obvious resistance, and then inject the drug into the stomach. • (8) 0.2 ml of whole blood was collected from the tested animals and added into EDTA-Na2 anticoagulant tubes before administration and 0.5 h, 1 h, 2 h, 4 h, 6 h, 8 h, 12 h and 24 h after administration respectively. The tubes were reversed up and down for 3-4 times and mixed evenly, centrifuged at 4° C. at 10000 g for 5 min to separate plasma, and stored at −80° C. for testing. The blood was collected from tail vein. • (9) LC-MS/MS method was established to determine the concentration of original drug in plasma, the blood drug concentration-time curve was drawn, and the main pharmacokinetic parameters were calculated by non-compartment model. • (10) Pharmacokinetic parameters of T-32/T-105/T-253/T-272/T-273/T-277 were shown below in Table 2.

[2] = test system: human pleural mesothelioma cells NCI-H226; test: Cell anti-proliferation experiment (CCK8), NCI-H226; format: cell-based
Method in brief: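 Viability was measured by CCK-8 (3 h, A450) after 3-day treatment with 0.15–333.33 nM compound in 0.1% DMSO medium. Curve-fitted IC50 was based on viability normalised to no-drug and cell-free controls.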

AUC(0-t) [1]	Cmax [1]	MRT last [1]	Tmax [1]	IC50 [2]	Compound
53900 ng·h/mL	3870 ng/mL	9.48 h	4 h	≤ 1000 nM	C[C@H](NC(=O)c1ccc2c(c1)c1nn(C)cc1c(=O)n2-c1ccc(C(F)(F)F)cc1)c1ccccn1 [Example T-105]
22200 ng·h/mL	2220 ng/mL	6.88 h	2.5 h	≤ 1000 nM	CNS(=O)(=O)c1ccc2c(c1)c1cn(C)nc1c(=O)n2-c1ccc(C(F)(F)F)cc1 [Example T-32]

More lines, now with the values behind:

Compound	AUC(0-t) [1]	Cmax [1]	MRT last [1]	Tmax [1]	IC50 [2]
Cc1cc(=O)n(-c2ccc(C(F)(F)F)cc2)c2ccc(C(=O)N[C@@H](C)c3ccccn3)cc12 [Example T-277]	26900 ng·h/mL	2650 ng/mL	7.28 h	4.7 h	≤ 1000 nM
C[C@H](NC(=O)c1ccc2c(c1)c1ccccc1c(=O)n2-c1ccc(C(F)(F)F)cc1)c1ccccn1 [Example T-272]	21200 ng·h/mL	1410 ng/mL	9.96 h	5.3 h	≤ 1000 nM
C[C@H](NC(=O)c1ccc2c(c1)c1cnccc1c(=O)n2-c1ccc(C(F)(F)F)cc1)c1ccccn1 [Example T-253]	39200 ng·h/mL	2640 ng/mL	9.78 h	4.7 h	≤ 1000 nM

Source: patent US20250154105A1, “POLYCYCLIC COMPOUND AND USE THEREOF” (TYK MEDICINES, INC., priority 2021, published 2025)
